In patent US8436049B2, “Uses of pentamidine and related compounds” (State of Oregon Acting By and Through the State Board of …, priority 2008, dated 2013):

Assays:
[1] = test system: CUG960 RNA nuclear foci / MBNL-GFP in HeLa cells; test: CUG foci formation and MBNL-GFP sequestration in HeLa cells transfected with MBNL-GFP and CUG960; assay type: cell-based; settings: 50 μM
Protocol: HeLa cells were plated in 6 well plates onto coverslips pre-treated with poly-L-lysine. Cells were transfected as described in Example 3. For transfection, 50 ng of MBNL-eGFP plasmid and 500 ng of CUG960 plasmid were transfected for each experiment. A total of 1 μg of plasmid DNA was transfected, with the additional amount being empty pcDNA3 vector. After transfection, pentamidine was added and the cells were fixed 16 hours later.
Cells were fixed for 15 min at room temperature (RT) with 4% paraformaldehyde and washed 5 times for 2 min in 1×PBS at RT. Cells were stored at 4° C., if not probed immediately. For fluorescence in situ hybridization, cells were permeabilized with 2% pre-chilled acetone in 1×PBS, at RT for 5 min. Cells were pre-washed with 30% formamide, 2×SSC for 10 min at RT. Cells were then probed for 2 hours at 37° C., with 1 ng/μl Cy3 CAG10 probe (Integrated DNA Technologies, Coralville, Iowa) in 30% formamide, 2×SSC, 0.02% BSA, 66 μg/ml yeast tRNA, 2 mM vanadyl complex. The cells were washed for 30 min in 30% formamide, 2×SSC at 42° C., then with 1×SSC for 30 min at RT. […] MBNL-eGFP was visualized using GFP fluorescence, exciting from 450-490 nm and visualizing at 520 nm. […]
Cells were scored by eye with the following criteria. […] 201 cells were scored for the MBNL-GFP and CUG960 double transfection. 242 cells treated with pentamidine (50 μM) were scored. […]

[2] = test system: PLEKHH2 minigene in HeLa cells; test: PLEKHH2 minigene splicing in HeLa cells; assay type: cell-based; settings: with or without CUG repeats
Protocol: HeLa cells were grown in monolayers in DMEM with GlutaMAX™ (Gibco, Carlsbad, Calif.) and supplemented with 10% fetal bovine serum. Approximately 2.0 (±0.2)×10^5 cells were plated in 6 well plates and transfected 18-20 hours later at 70-90% confluency. 1 μg of plasmid was transfected into each well of cells, using 5 μL of […] (Invitrogen) according to the manufacturer's protocols. For co-transfection, 1 μg of total plasmid was transfected, at 500 ng of each construct. Test compounds were added 4 hours after transfection, when the media was changed. Cells were harvested 18-22 hours after transfection using TrypLE™ reagent (Gibco).
Immediately following harvesting, RNA was isolated from the cell pellets using an RNeasy® kit (Qiagen, Valencia, Calif.). 500 ng of isolated RNA was DNased with RQI DNase (Promega, Madison, Wis.) according to manufacture's protocol. 100 ng of DNAsed RNA was reverse transcribed with Superscript® II (Invitrogen, Carlsbad, Calif.) and a cTNT-specific reverse primer according to manufacturer's protocols. 30 ng of the reverse transcription reaction was subjected to 22-25 rounds of PCR amplification using cTNT specific primers spiked with a forward primer 5′ end-labeled with [γ-^32P]ATP. […] The gel was subsequently autoradiographed and quantitation of the radioactive bands was performed using ImageQuant® software. […]

For `N=C(N)c1ccc(OCCCCCOc2ccc(C(=N)N)cc2)cc1` [pentamidine], the “Characteristics of CUG RNA foci” value [1] was “the foci became increasingly more diffuse”, the “MBNL sequestration to foci” value [1] was “partially relieved in many cells” and the “Effect on PLEKHH2 minigene splicing” value [2] was “Splicing was unchanged”.
